“And” between values parts separate entries of the source, which are not always exact repeats. Identical values can stand only once.
Key:
[1] = Inhibition of tetrabenazine induced depression of exploratory behavior in mice; assay type: in vivo; conditions: for Number Responded/Number Treated: intraperitoneally or orally, 1 h before tetrabenazine 30 mg/kg; for ED50: Mus musculus, calculated by method of Finney, dose column in mg/kg, read-out: ED50 (95% C.L.)
Protocol: Varying doses of the test compounds are administered intraperitoneally or orally to 5 mice one hour before the administration of tetrabenazine hexamate at an intraperitoneal dose of 30 mg/kg which is known to depress markedly the exploratory behavior of normal mice. Thirty minutes later the mice are tested for their exploratoy behavior. Individual mice are placed in the center of a horizontal disc. Inhibition of the depression induced by tetrabenazine is considered present if the mice perform one or more of the following actions within 10 seconds after being placed on the disc:
(1) Animals move to the edge of the disc and pear over the side.
(2) Animals move 180° in place.
(3) Animals display a head movement of 90° immediately followed by a head movement in the opposite direction of at least 45°.
Administration of the test compounds to additional groups of 5 mice is repeated, the numbers of individual animals showing an anti-depressant response (normal exploratory behavior) is recorded and the results are analyzed by the following scheme (statistically standardized; significant P = less than 0.05).
The results from several dose levels (acceptance in at least two sequential test procedures) are then used to establish the Range of Active Doses.

[2] = Prevention of reserpine-induced hypothermia in rats; assay type: in vivo; conditions: for ED50: Rattus norvegicus, oral, dose column in mg/kg, read-out: ED50 (95% C.L.)
Protocol: Groups of 5 rats were treated orally with graded doses of the test compounds. One hour later the animals were treated with reserpine (solubilized in propylene glycol and citric acid) at a dose of 5 mg/kg intraperitoneally. Rectal temperatures were measured using a YSI Telethermometer. Temperatures were recorded just prior to treatment, one hour later just prior to reserpine administration and at hourly intervals following reserpine administration for 5 hours. […]

reversible ptosis test = assay type: in vivo; conditions: oral, rats
Protocol: A useful test for anti-psychotic activity consists of measuring ptosis in animals.
Ptosis is defined as closure of the palpebral aperture (eyelid) greater than 70%. The compounds to be tested were administered orally to groups of 10 rats each. Periodically after treatment the rats were gently placed on the cage top and examined for 90 seconds for signs of ptosis. This manipulation eliminates spontaneous ptosis. The rats were then dropped from a height of about 18 inches (exteroceptive stimulation) onto the cage top to test for reversibility of ptosis. Reversible ptosis is defined as less than 70% closure of the palpebral aperture for longer than one minute after the exteroceptive stimulation and is indicative of neuroleptic activity of the drug administered.

[3] = reduction of spontaneous motor activity (Animax Activity Counter); assay type: in vivo; conditions: Rattus norvegicus, 5 min; oral, rats, 5 minute period; read-out: MDD50 (effective dose that causes a 50% reduction in motor activity)
Protocol: A useful test for anti-psychotic activity consists of measuring the reduction of spontaneous motor activity in animals.
Groups of 4 rats are treated orally with the test compound dissolved or suspended in starch vehicle at the maximum tolerated dose. At the estimated time of peak effect, the animals are placed singly into an Animax Activity Counter and the activity of each rat is recorded over a 5 minute period. The activity counts are compared to historical or parallel control values to determine significant increased or decreased locomotor activity.

[4] = "writhing syndrome" test for analgesic activity (phenyl p-quinone); assay type: in vivo, male Swiss albino mice; conditions: 1.6 mg/kg oral; control approximately 30 per pair; active if 18 or less
Protocol: This method is based upon the reduction of the number of writhes following the intraperitoneal injection of one mg./kg. of body weight of phenyl p-quinone in male Swiss albino mice weighing 15-25 g. The syndrome is characterized by intermittent contractions of the abdomen, twisting and turning of the trunk, and extension of the hind legs beginning 3 to 5 minutes after injection of the phenyl p-quinone. The test compounds are administered orally at the indicated dose to groups of 2 mice each, 30 minutes before injection of the phenyl p-quinone.

**Q.** Which “Number Responded/Number Treated” value ([1]; 0.78 mg/kg) does the source give for CN(C)CCCN1c2ccccc2CCc2ccccc21 [Imipramine, reference compound] here?
**A.** 1/10

**Q.** What about the “Number Responded/Number Treated” value ([1]; 1.56 mg/kg) of the same compound?
**A.** 2/10

**Q.** What about the “Number Responded/Number Treated” value ([1]; 3.13 mg/kg) of the same compound?
**A.** 4/10

**Q.** What about the “Number Responded/Number Treated” value ([1]; 6.25 mg/kg) of the same compound?
**A.** 7/10

**Q.** What about the “Number Responded/Number Treated” value ([1]; 12.5 mg/kg) of the same compound?
**A.** 7/10

**Q.** What about the “Number Responded/Number Treated” value ([1]; 25.0 mg/kg) of the same compound?
**A.** 9/10

**Q.** What about the ED50 [1] of the same compound?
**A.** 4.4 mg/kg

**Q.** What about the “Percent of Animals Showing > Two Standard Deviations in Rectal Temperature Over Control Means” value ([2]; 0.20 mg/kg oral, 2 hours after reserpine) of the same compound?
**A.** 0%

**Q.** What about the “Percent of Animals Showing > Two Standard Deviations in Rectal Temperature Over Control Means” value ([2]; 0.20 mg/kg oral, 3 hours after reserpine) of the same compound?
**A.** 0%

**Q.** What about the “Percent of Animals Showing > Two Standard Deviations in Rectal Temperature Over Control Means” value ([2]; 0.20 mg/kg oral, 4 hours after reserpine) of the same compound?
**A.** 0%

**Q.** What about the “Percent of Animals Showing > Two Standard Deviations in Rectal Temperature Over Control Means” value ([2]; 0.20 mg/kg oral, 5 hours after reserpine) of the same compound?
**A.** 0%

**Q.** What about the “Percent of Animals Showing > Two Standard Deviations in Rectal Temperature Over Control Means” value ([2]; 0.39 mg/kg oral, 2 hours after reserpine) of the same compound?
**A.** 0%

**Q.** And the “Percent of Animals Showing > Two Standard Deviations in Rectal Temperature Over Control Means” value ([2]; 0.39 mg/kg oral, 3 hours after reserpine)?
**A.** 10%

**Q.** What about the “Percent of Animals Showing > Two Standard Deviations in Rectal Temperature Over Control Means” value ([2]; 0.39 mg/kg oral, 4 hours after reserpine) of the same compound?
**A.** 0%

**Q.** And the “Percent of Animals Showing > Two Standard Deviations in Rectal Temperature Over Control Means” value ([2]; 0.39 mg/kg oral, 5 hours after reserpine)?
**A.** 0%

**Q.** What about the “Percent of Animals Showing > Two Standard Deviations in Rectal Temperature Over Control Means” value ([2]; 0.78 mg/kg oral, 2 hours after reserpine) of the same compound?
**A.** 21%

**Q.** What about the “Percent of Animals Showing > Two Standard Deviations in Rectal Temperature Over Control Means” value ([2]; 0.78 mg/kg oral, 3 hours after reserpine) of the same compound?
**A.** 0%

**Q.** And the “Percent of Animals Showing > Two Standard Deviations in Rectal Temperature Over Control Means” value ([2]; 0.78 mg/kg oral, 4 hours after reserpine)?
**A.** 0%

**Q.** And the “Percent of Animals Showing > Two Standard Deviations in Rectal Temperature Over Control Means” value ([2]; 0.78 mg/kg oral, 5 hours after reserpine)?
**A.** 7%

**Q.** And the “Percent of Animals Showing > Two Standard Deviations in Rectal Temperature Over Control Means” value ([2]; 1.56 mg/kg oral, 2 hours after reserpine)?
**A.** 40%

**Q.** What about the “Percent of Animals Showing > Two Standard Deviations in Rectal Temperature Over Control Means” value ([2]; 1.56 mg/kg oral, 3 hours after reserpine) of the same compound?
**A.** 20%

**Q.** What about the “Percent of Animals Showing > Two Standard Deviations in Rectal Temperature Over Control Means” value ([2]; 1.56 mg/kg oral, 4 hours after reserpine) of the same compound?
**A.** 20%

**Q.** And the “Percent of Animals Showing > Two Standard Deviations in Rectal Temperature Over Control Means” value ([2]; 1.56 mg/kg oral, 5 hours after reserpine)?
**A.** 40%

**Q.** And the “Percent of Animals Showing > Two Standard Deviations in Rectal Temperature Over Control Means” value ([2]; 3.13 mg/kg oral, 2 hours after reserpine)?
**A.** 100%

**Q.** And the “Percent of Animals Showing > Two Standard Deviations in Rectal Temperature Over Control Means” value ([2]; 3.13 mg/kg oral, 3 hours after reserpine)?
**A.** 90%

**Q.** And the “Percent of Animals Showing > Two Standard Deviations in Rectal Temperature Over Control Means” value ([2]; 3.13 mg/kg oral, 4 hours after reserpine)?
**A.** 80%

**Q.** What about the “Percent of Animals Showing > Two Standard Deviations in Rectal Temperature Over Control Means” value ([2]; 3.13 mg/kg oral, 5 hours after reserpine) of the same compound?
**A.** 100%

**Q.** What about the “Percent of Animals Showing > Two Standard Deviations in Rectal Temperature Over Control Means” value ([2]; 6.25 mg/kg oral, 2 hours after reserpine) of the same compound?
**A.** 100%

**Q.** And the “Percent of Animals Showing > Two Standard Deviations in Rectal Temperature Over Control Means” value ([2]; 6.25 mg/kg oral, 3 hours after reserpine)?
**A.** 100%

**Q.** And the “Percent of Animals Showing > Two Standard Deviations in Rectal Temperature Over Control Means” value ([2]; 6.25 mg/kg oral, 4 hours after reserpine)?
**A.** 100%

**Q.** And the “Percent of Animals Showing > Two Standard Deviations in Rectal Temperature Over Control Means” value ([2]; 6.25 mg/kg oral, 5 hours after reserpine)?
**A.** 100%

**Q.** What about the “Percent of Animals Showing > Two Standard Deviations in Rectal Temperature Over Control Means” value ([2]; 12.5 mg/kg oral, 2 hours after reserpine) of the same compound?
**A.** 100%

**Q.** What about the “Percent of Animals Showing > Two Standard Deviations in Rectal Temperature Over Control Means” value ([2]; 12.5 mg/kg oral, 3 hours after reserpine) of the same compound?
**A.** 80%

**Q.** And the “Percent of Animals Showing > Two Standard Deviations in Rectal Temperature Over Control Means” value ([2]; 12.5 mg/kg oral, 4 hours after reserpine)?
**A.** 100%

**Q.** And the “Percent of Animals Showing > Two Standard Deviations in Rectal Temperature Over Control Means” value ([2]; 12.5 mg/kg oral, 5 hours after reserpine)?
**A.** 100%

**Q.** What about the ED50 ([2]; 2 hours after reserpine) of the same compound?
**A.** 1.2 mg/kg

**Q.** What about the ED50 ([2]; 3 hours after reserpine) of the same compound?
**A.** 2.2 mg/kg

**Q.** And the ED50 ([2]; 4 hours after reserpine)?
**A.** 2.2 mg/kg

**Q.** What about the ED50 ([2]; 5 hours after reserpine) of the same compound?
**A.** 1.3 mg/kg

**Q.** Which results are given for CN1CCN(C2=Nc3cc(Cl)ccc3Nc3cscc32)CC1.[O-][Cl+3]([O-])([O-])O.[O-][Cl+3]([O-])([O-])O [7-Chloro-10-(4-methyl-1-piperazinyl)-4H-thieno[3,4-b][1,5]benzodiazepine diperchlorate]?
**A.** ED50 (dose estimated to create reversible ptosis in 50% of the animals) (reversible ptosis test): 10 mg/kg; ED50 [3]: 20 mg/kg; No. of Writhes Per Pair [4]: 1 and 2

**Q.** Which “Number Responded/Number Treated” value ([1]; 3.13 mg/kg) does the source give for CCN1CCN(C2=Nc3ccccc3N(C)c3cscc32)CC1 [4-Methyl-10-(4-ethyl-1-piperazinyl)-4H-thieno[3,4-b][1,5]benzodiazepine] here?
**A.** 3/15

**Q.** And the “Number Responded/Number Treated” value ([1]; 6.25 mg/kg)?
**A.** 10/30

**Q.** And the “Number Responded/Number Treated” value ([1]; 12.5 mg/kg)?
**A.** 12/25

**Q.** What about the “Number Responded/Number Treated” value ([1]; 25.0 mg/kg) of the same compound?
**A.** 10/25

**Q.** What about the ED50 [1] of the same compound?
**A.** ~35 mg/kg
